Laboratory results taken from ChEMBL document CHEMBL4725489, “Synthesis, Characterization, and In Silico Studies of Novel Spirooxindole Derivatives as Ecto-5'-Nucleotidase Inhibitors” (ACS Med Chem Lett, 2020).
The source made the active and inactive calls. The calls are words filed in the database; no cut-off is given here.

Experiments:
[1] = target: T1, 5'-nucleotidase (Rattus norvegicus) (UniProt P21588); experiment: (§1) Inhibition of recombinant rat ecto-5' nucleotidase expressed in COS7 cell membranes assessed as inorganic phosphate release using AMP as substrate at 100 uM preincubated for 10 mins followed by substrate addition and measured after 20 mins by malachite green dye based spectrophotometry relative to control
T1 sequence (whole entry): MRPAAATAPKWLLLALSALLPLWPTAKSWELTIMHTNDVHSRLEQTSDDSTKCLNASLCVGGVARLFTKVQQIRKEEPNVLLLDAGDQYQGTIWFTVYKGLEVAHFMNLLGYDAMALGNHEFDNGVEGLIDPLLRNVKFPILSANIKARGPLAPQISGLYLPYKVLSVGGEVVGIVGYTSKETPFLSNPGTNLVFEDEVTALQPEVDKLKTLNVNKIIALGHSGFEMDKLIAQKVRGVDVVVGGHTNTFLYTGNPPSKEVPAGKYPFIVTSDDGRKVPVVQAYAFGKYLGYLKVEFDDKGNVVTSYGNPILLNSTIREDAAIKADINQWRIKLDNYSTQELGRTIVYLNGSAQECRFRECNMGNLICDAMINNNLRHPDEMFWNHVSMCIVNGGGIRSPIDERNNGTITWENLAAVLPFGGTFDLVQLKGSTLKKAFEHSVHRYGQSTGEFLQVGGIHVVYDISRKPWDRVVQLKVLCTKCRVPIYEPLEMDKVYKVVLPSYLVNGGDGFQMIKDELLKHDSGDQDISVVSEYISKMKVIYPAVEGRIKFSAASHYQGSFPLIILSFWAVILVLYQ

[2] = target: T2, 5'-nucleotidase (Homo sapiens, UniProt P21589); experiment: Inhibition of recombinant human ecto-5' nucleotidase expressed in COS7 cell membranes assessed as inorganic phosphate release using AMP as substrate preincubated for 10 mins followed by substrate addition and measured after 20 mins by malachite green dye based spectrophotometry
Target sequence in this assay (P21589 whole entry): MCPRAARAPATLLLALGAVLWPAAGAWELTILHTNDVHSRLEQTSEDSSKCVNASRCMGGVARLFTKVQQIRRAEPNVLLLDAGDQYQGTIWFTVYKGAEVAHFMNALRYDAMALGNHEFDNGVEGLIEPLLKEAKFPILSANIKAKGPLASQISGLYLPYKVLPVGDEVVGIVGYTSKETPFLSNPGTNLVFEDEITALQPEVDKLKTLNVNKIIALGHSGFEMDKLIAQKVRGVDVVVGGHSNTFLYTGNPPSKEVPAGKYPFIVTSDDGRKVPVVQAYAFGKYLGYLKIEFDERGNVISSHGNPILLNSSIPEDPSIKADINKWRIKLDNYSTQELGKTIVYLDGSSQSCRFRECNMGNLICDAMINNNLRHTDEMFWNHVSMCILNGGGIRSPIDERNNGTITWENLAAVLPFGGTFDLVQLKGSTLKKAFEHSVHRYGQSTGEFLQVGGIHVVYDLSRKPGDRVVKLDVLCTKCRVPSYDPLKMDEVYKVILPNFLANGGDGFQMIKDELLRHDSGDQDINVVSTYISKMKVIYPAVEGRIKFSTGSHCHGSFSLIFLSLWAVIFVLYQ

[3] = target: T2, 5'-nucleotidase; experiment: as §1, with “recombinant human” for “recombinant rat”
Target sequence in this assay (P21589 whole entry): as above

[4] = target: T3, 5'-nucleotidase (Rattus norvegicus, UniProt P21588); experiment: Inhibition of recombinant rat ecto-5' nucleotidase expressed in COS7 cell membranes assessed as inorganic phosphate release using AMP as substrate uM preincubated for 10 mins followed by substrate addition and measured after 20 mins by malachite green dye based spectrophotometry
T3 sequence (P21588 whole entry): T1 sequence (whole entry)

[5] = Selectivity index, ratio of IC50 for recombinant rat ecto-5' nucleotidase expressed in COS7 cell membranes to IC50 for recombinant human ecto-5' nucleotidase expressed in COS7 cell membranes; type: cell-based
[6] = target: T2, 5'-nucleotidase; experiment: Inhibition of recombinant human ecto-5' nucleotidase expressed in COS7 cell membranes using AMP as substrate preincubated for 10 mins followed by substrate addition and measured after 20 mins by capillary electrophoresis method
Target sequence in this assay (P21589 whole entry): as above

[7] = target: T2, 5'-nucleotidase; experiment: Potency index, ratio of sulfamic acid IC50 to compound IC50 for human ecto-5' nucleotidase expressed in COS7 cell membranes assessed as inorganic phosphate release using AMP as substrate preincubated for 10 mins followed by substrate addition and measured after 20 mins by malachite green dye based …
Target sequence in this assay (P21589 whole entry, looked up): as the sequence (P21589 whole entry) above

[8] = target: T2, 5'-nucleotidase; experiment: Noncompetitive inhibition of human ecto-5' nucleotidase assessed as increase in Km with constant Vmax at 0 to 0.6 uM by Lineweaver-Burk plot analysis; conditions: dose microM 0-0.6
Target sequence in this assay (P21589 whole entry): as above

[9] = target: T1, 5'-nucleotidase (Rattus norvegicus); experiment: Uncompetitive inhibition of rat ecto-5' nucleotidase assessed as increase in Km with constant Vmax at 0 to 0.6 uM by Lineweaver-Burk plot analysis; conditions: dose microM 0-0.6

| inhibition [1] | IC50 [2] | inhibition [3] | IC50 [4] | SMILES | further results |
| --- | --- | --- | --- | --- | --- |
| 41% | 690 nM | – | – | CN1C(=O)C2(C(C#N)=C(N)Nc3n[nH]cc32)c2ccccc21 (centres undefined) | – |
| 45.1% | – | 34.3% | – | Cc1[nH]nc2c1C1(C(=O)N(C)c3ccc([N+](=O)[O-])cc31)C(C#N)=C(N)N2 (centres undefined) | – |
| – | – | 33% | 1560 nM | Cc1[nH]nc2c1C1(C(=O)N(C)c3ccc(Cl)cc31)C(C#N)=C(N)N2 (centres undefined) | – |
| 36.5% | – | 33% | – | Cc1[nH]nc2c1C1(C(=O)Nc3ccccc31)C(C#N)=C(N)N2 (centres undefined) | – |
| – | 460 nM | – | 7990 nM | CN1C(=O)C2(C(C#N)=C(N)Nc3n[nH]cc32)c2cc(F)ccc21 (centres undefined) | Ratio IC50 [5]: 17.3 |
| – | – | – | – | Cc1ccc(-n2nc(C)c3cc(Cl)c(-c4cc(C)ccc4O)nc32)cc1 | IC50 [6]: 320 nM |
| – | 150 nM | – | 520 nM | CN1C(=O)C2(C(C#N)=C(N)Nc3n[nH]cc32)c2cc(OC(F)(F)F)ccc21 (centres undefined) | Ratio IC50 [7]: 280; inhibition [8]: Active |
| – | – | 36.6% | 190 nM | Cc1[nH]nc2c1C1(C(=O)N(C)c3ccccc31)C(C#N)=C(N)N2 (centres undefined) | inhibition [9]: Active |
| 41.7% | – | 27.6% | – | N#CC1=C(N)Nc2n[nH]cc2C12C(=O)Nc1ccccc12 (centres undefined) | – |
| – | – | 38% | 2120 nM | CN1C(=O)C2(C(C#N)=C(N)Nc3n[nH]cc32)c2cc([N+](=O)[O-])ccc21 (centres undefined) | – |
| – | 260 nM | – | 5010 nM | Cc1[nH]nc2c1C1(C(=O)N(C)c3ccc(F)cc31)C(C#N)=C(N)N2 (centres undefined) | – |
| – | – | 39.7% | 680 nM | CN1C(=O)C2(C(C#N)=C(N)Nc3n[nH]cc32)c2cc(Cl)ccc21 (centres undefined) | – |
| – | 180 nM | – | 3560 nM | Cc1[nH]nc2c1C1(C(=O)N(C)c3ccc(OC(F)(F)F)cc31)C(C#N)=C(N)N2 (centres undefined) | – |
